Source: PubChem BioAssay AID248 (DTP/NCI, 2004)
“And” between values parts separate entries of the source, which are not always exact repeats. Equal entries are not always repeated. Toxic doses and inconclusive results are not listed. No stated cut-off is given here; in the data, active means T/C of 150% or more; inactive means T/C below 125%.

System: L1210 leukemia ip in BDF1 mice, survival T/C
Experiment: NCI In Vivo Anticancer Drug Screen. Data for tumor model L1210 Leukemia (intraperitoneal) in B6D2F1 (BDF1) mice
Conditions: endpoint: mean survival time, higher = longer survival
Method in brief: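 In this screen, tumor-bearing mice given compound are compared to those given vehicle, and their survival values are reported as a treated-to-control quotient.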

[1] = dose: 100.0 mg/kg/injection, schedule: Q01DX009 (ip), vehicle: saline with Tween-80
[2] = dose: 100.0 mg/kg/injection, schedule: Q04DX003 (ip), vehicle: saline with Tween-80
[3] = dose: 200.0 mg/kg/injection, schedule: Q01DX009 (ip), vehicle: saline with Tween-80
[4] = dose: 200.0 mg/kg/injection, schedule: Q04DX003 (ip), vehicle: saline with Tween-80
[5] = dose: 400.0 mg/kg/injection, schedule: Q04DX003 (ip), vehicle: saline with Tween-80
[6] = dose: 50.0 mg/kg/injection, schedule: Q01DX001 (ip), vehicle: saline
[7] = dose: 100.0 mg/kg/injection, schedule: Q01DX001 (ip), vehicle: saline
[8] = dose: 200.0 mg/kg/injection, schedule: Q01DX001 (ip), vehicle: saline
[9] = dose: 400.0 mg/kg/injection, schedule: Q01DX001 (ip), vehicle: saline
[10] = dose: 100.0 mg/kg/injection, schedule: Q01DX001 (ip), vehicle: Klucel (hydroxypropylcellulose) (HPC)
[11] = dose: 100.0 mg/kg/injection, schedule: Q04DX003 (ip), vehicle: Klucel (hydroxypropylcellulose) (HPC)
[12] = dose: 200.0 mg/kg/injection, schedule: Q01DX001 (ip), vehicle: Klucel (hydroxypropylcellulose) (HPC)
[13] = dose: 200.0 mg/kg/injection, schedule: Q04DX003 (ip), vehicle: Klucel (hydroxypropylcellulose) (HPC)
[14] = dose: 400.0 mg/kg/injection, schedule: Q01DX001 (ip), vehicle: Klucel (hydroxypropylcellulose) (HPC)
[15] = dose: 400.0 mg/kg/injection, schedule: Q04DX003 (ip), vehicle: Klucel (hydroxypropylcellulose) (HPC)
[16] = dose: 100.0 mg/kg/injection, schedule: Q01DX009 (ip), vehicle: saline
[17] = dose: 100.0 mg/kg/injection, schedule: Q04DX003 (ip), vehicle: saline
[18] = dose: 100.0 mg/kg/injection, schedule: Q01DX001 (ip), vehicle: carboxymethylcellulose (CMC)
[19] = dose: 100.0 mg/kg/injection, schedule: Q01DX009 (ip), vehicle: Klucel (hydroxypropylcellulose) (HPC)
[20] = dose: 200.0 mg/kg/injection, schedule: Q01DX001 (ip), vehicle: carboxymethylcellulose (CMC)
[21] = dose: 200.0 mg/kg/injection, schedule: Q01DX009 (ip), vehicle: Klucel (hydroxypropylcellulose) (HPC)
[22] = dose: 400.0 mg/kg/injection, schedule: Q01DX001 (ip), vehicle: carboxymethylcellulose (CMC)
[23] = dose: 400.0 mg/kg/injection, schedule: Q01DX009 (ip), vehicle: Klucel (hydroxypropylcellulose) (HPC)
[24] = dose: 200.0 mg/kg/injection, schedule: Q01DX009 (ip), vehicle: saline
[25] = dose: 200.0 mg/kg/injection, schedule: Q04DX003 (ip), vehicle: saline
[26] = dose: 400.0 mg/kg/injection, schedule: Q04DX003 (ip), vehicle: saline

Measured: T/C

Cc1nc(N)c(Cl)nc1C
inactive: dose: 50.0 mg/kg/injection, schedule: Q01DX009 (ip), vehicle: saline with Tween-80 96 % of control | [1] 100 % of control and 104 % of control | [2] 102 % of control | [3] 97 % of control and 98 % of control | [4] 96 % of control | [5] 88 % of control

C[N+](C)(C)Cc1ncccc1OC(=O)N(c1ccccc1)c1ccccc1
inactive: dose: 25.0 mg/kg/injection, schedule: Q04DX003 (ip), vehicle: saline with Tween-80 96 % of control | dose: 50.0 mg/kg/injection, schedule: Q04DX003 (ip), vehicle: saline with Tween-80 96 % of control | [2] 96 % of control and 101 % of control

CCOC(=O)/C(=C/c1ccc(OC)cc1)P(=O)(OCC)OCC
inactive: [6] 91 % of control | [7] 91 % of control | [8] 103 % of control | [9] 95 % of control

COC(=O)NS(=O)(=O)c1cccn1C
inactive: [10] 106 % of control | [11] 106 % of control | [12] 104 % of control | [13] 100 % of control | [14] 104 % of control | [15] 95 % of control

CC(N)Cc1cn(C)c2ccccc12 (stereo unspecified)
inactive: dose: 6.25 mg/kg/injection, schedule: Q01DX009 (ip), vehicle: saline 96 % of control | dose: 12.5 mg/kg/injection, schedule: Q01DX009 (ip), vehicle: saline 105 % of control | dose: 25.0 mg/kg/injection, schedule: Q01DX009 (ip), vehicle: saline 103 % of control | dose: 25.0 mg/kg/injection, schedule: Q04DX003 (ip), vehicle: saline 101 % of control | dose: 50.0 mg/kg/injection, schedule: Q01DX009 (ip), vehicle: saline 105 % of control | dose: 50.0 mg/kg/injection, schedule: Q04DX003 (ip), vehicle: saline 95 % of control | [16] 97 % of control | [17] 104 % of control

COC(=O)NNC(=O)OC
inactive: dose: 50.0 mg/kg/injection, schedule: Q01DX001 (ip), vehicle: carboxymethylcellulose (CMC) 89 % of control | [18] 94 % of control | [19] 97 % of control | [20] 97 % of control | [21] 100 % of control | [22] 103 % of control | [23] 103 % of control

CCCCCCCCCCCCCCCCN(C(C)c1ccccc1)S(=O)(=O)c1ccc(OC)c(N)c1 (stereo unspecified)
inactive: [10] 93 % of control | [19] 94 % of control | [11] 98 % of control | [12] 88 % of control | [21] 94 % of control | [13] 98 % of control | [14] 88 % of control | [23] 95 % of control | [15] 98 % of control

Cc1cc([N+](=O)[O-])c2ccccc2c1N(CC(=O)O)S(=O)(=O)c1ccccc1
inactive: [1] 93 % of control | [2] 90 % of control | [3] 99 % of control | [4] 97 % of control | dose: 400.0 mg/kg/injection, schedule: Q01DX009 (ip), vehicle: saline with Tween-80 104 % of control | [5] 89 % of control

COC(=O)CNc1ccc(O)cc1
inactive: dose: 100.0 mg/kg/injection, schedule: Q04DX003 (ip), vehicle: other 102 % of control | dose: 200.0 mg/kg/injection, schedule: Q04DX003 (ip), vehicle: other 94 % of control | dose: 400.0 mg/kg/injection, schedule: Q04DX003 (ip), vehicle: other 88 % of control

NC(=O)C1=CNCCC1
inactive: dose: 6.25 mg/kg/injection, schedule: Q01DX001 (ip), vehicle: saline 98 % of control | dose: 12.5 mg/kg/injection, schedule: Q01DX001 (ip), vehicle: saline 104 % of control | dose: 25.0 mg/kg/injection, schedule: Q01DX001 (ip), vehicle: saline 101 % of control | [6] 93 % of control and 118 % of control | [7] 114 % of control | [8] 109 % of control | [9] 118 % of control

COc1ccc(CCN2C(=O)C=CC2=O)cc1OC
inactive: dose: 5.0 mg/kg/injection, schedule: Q04DX003 (ip), vehicle: saline 97 % of control | dose: 10.0 mg/kg/injection, schedule: Q04DX003 (ip), vehicle: saline 96 % of control | dose: 20.0 mg/kg/injection, schedule: Q04DX003 (ip), vehicle: saline 100 % of control

O=C(O)c1ccc(NC(C(=O)c2ccccc2)c2ccccc2)cc1 (stereo unspecified)
inactive: dose: 50.0 mg/kg/injection, schedule: Q01DX001 (ip), vehicle: Klucel (hydroxypropylcellulose) (HPC) 96 % of control | [10] 107 % of control | [12] 94 % of control

CCOC(=O)C1=NN(c2ccccc2)C(=O)C1N=Nc1ccc(S(N)(=O)=O)cc1 (stereo unspecified)
inactive: [7] 95 % of control | [8] 93 % of control | [9] 93 % of control

CCCCNC(=O)C1CCC(CC2CCCCC2)CC1 (stereo unspecified)
inactive: dose: 100.0 mg/kg/injection, schedule: Q04DX002 (ip), vehicle: saline with Tween-80 90 % of control | dose: 200.0 mg/kg/injection, schedule: Q04DX002 (ip), vehicle: saline with Tween-80 105 % of control | dose: 400.0 mg/kg/injection, schedule: Q04DX002 (ip), vehicle: saline with Tween-80 94 % of control

Cc1cn(C2CC(OS(C)(=O)=O)C(CO)O2)c(=O)[nH]c1=O (stereo unspecified)
inactive: dose: 100.0 mg/kg/injection, schedule: Q01DX005 (ip), vehicle: saline 102 % of control | dose: 200.0 mg/kg/injection, schedule: Q01DX005 (ip), vehicle: saline 104 % of control

OCC(O)C1CCCCN1 (stereo unspecified)
inactive: [16] 91 % of control | [17] 97 % of control | [24] 100 % of control | [25] 97 % of control | [26] 97 % of control

CC1OC2COC(C)OC2C(C(O)COC(c2ccccc2)(c2ccccc2)c2ccccc2)O1 (stereo unspecified)
inactive: [19] 93 % of control | [11] 98 % of control | [21] 95 % of control | [13] 97 % of control | [23] 101 % of control | [15] 95 % of control

CC(C)(C)NC(=O)Oc1ccc(Br)cc1Br
inactive: [16] 104 % of control | [17] 88 % of control | [24] 98 % of control | [25] 92 % of control | dose: 400.0 mg/kg/injection, schedule: Q01DX009 (ip), vehicle: saline 104 % of control | [26] 87 % of control

CC1(C)OC(=O)C(C#N)C1c1ccccc1 (stereo unspecified)
inactive: [7] 93 % of control | [8] 91 % of control | [9] 96 % of control

C=C(C)CCCC(C)CC#N (stereo unspecified)
inactive: [18] 117 % of control | [20] 100 % of control | [22] 96 % of control
